{"source": "patent US11903981B2", "about": "“Use of Anaerofustis stercorihominis in preventing and/or treating metabolic diseases” (priority 2018, dated 2024)", "key": {"AM25-6": {"system": "AM25-6", "test": "Antibiotic sensitivity of AM25-6 by the drug sensitive paper method", "type": "cell-based, Anaerofustis stercorihominis", "details": "antibiotic susceptibility papers on AM25-6 plates, 37° C., 48 hours", "method": "The sensitivity of AM25-6 to 20 common antibiotics was tested by the drug sensitive paper method. 100 μl of AM25-6 bacterial solution cultured to the logarithmic phase was spread plated. Antibiotic susceptibility papers (purchased from Hangzhou Microbial Reagent Co. LTD) were affixed on the medium surface of plates, cultured at 37° C. for 48 hours, after which the size of inhibition zone was measured."}, "[1]": {"system": "T2D mice model (C57bL/6 mice)", "test": "T2D animal model (STZ plus high-fat feed), body weight", "type": "in vivo", "details": "gavage", "method": "(§1) The T2D animal model is constructed by using C57bL/6 mice (purchased from Guangdong Medical Experimental Animal Center) at 8 weeks old and 20±2 g of body weight. The mice were housed in a specific pathogen free (SPF) environment and adaptively fed for 1 week, followed by grouping and modeling. The T2D animal model is induced by injection of streptozotocin (STZ) along with feeding high-fat feed, and the mice having fasting blood glucose (FBG) reaching to 10 mM/L can be used as a T2D mice model. Fifty mice selected for experiments are randomly divided into 5 groups.\n(§2) Bacterial agent group 1: the T2D mice model was administered with the AM25-6 bacterial solution (1×10^8 cfu/ml) by gavage;\n(§3) Bacterial agent group 2: the T2D mice model was administered with the DSM 17244 bacterial solution (1×10^8 cfu/ml) by gavage;\n(§4) Bacterial agent group 3: the T2D mice model was administered with the DSM 28733 bacterial solution (1×10^8 cfu/ml) by gavage;\n(§5) Metformin treatment group: the T2D mice model was treated with the positive drug metformin.\n(§6) The experiment was carried out based on the different groups. After the construction of T2D mice model (i.e., FBG>10), the treatment was started and lasted for 2 months. The food intake amount and body weight of mice were recorded daily. Blood of mice was collected from the tail vein every week for detection of fasting blood glucose. The oral glucose tolerance test (OGTT) of mice was measured at week 4 of treatment and at the end of the experiment."}, "[2]": {"system": "T2D mice model (C57bL/6 mice)", "test": "T2D animal model, fasting blood glucose", "type": "in vivo", "method": "as §1, §2, §3, §4, §5, §6"}, "[3]": {"system": "T2D mice model (C57bL/6 mice)", "test": "T2D animal model, oral glucose tolerance test (OGTT)", "type": "in vivo", "method": "as §1, §6\nThe results of oral glucose tolerance test (OGTT) for mice shown in Table 8 indicate that the blood glucose of mice reaches the highest level (i.e., 17.8-23.1 mmol/L) at 30 minutes upon administration of glucose by gavage. […] From the perspective of overall glucose tolerance process, it can be seen that Anaerofustis stercorihominis can effectively ameliorate glucose intolerance in diabetic mice."}}, "note": "Marks after values point to notes of the source that are not given here.", "data": [{"compound": "CC1(C)S[C@@H]2[C@H](NC(=O)[C@H](N)c3ccccc3)C(=O)N2[C@H]1C(=O)O", "note": "[Ampicillin]", "values": [{"measurement": "Diameter of inhibition zone", "setting": "AM25-6", "result": ">4.0", "unit": "cm"}]}, {"compound": "Gentamicin", "values": [{"measurement": "Diameter of inhibition zone", "setting": "AM25-6", "result": 2.0, "unit": "cm"}]}, {"compound": "CO/N=C(\\C(=O)N[C@@H]1C(=O)N2C(C(=O)O)=C(COC(N)=O)CS[C@H]12)c1ccco1", "note": "[Cefuroxime]", "values": [{"measurement": "Diameter of inhibition zone", "setting": "AM25-6", "result": 3.0, "unit": "cm"}]}, {"compound": "CN(C)[C@@H]1C(O)=C(C(N)=O)C(=O)[C@@]2(O)C(O)=C3C(=O)c4c(O)cccc4[C@@](C)(O)[C@H]3C[C@@H]12", "note": "[Tetracycline]", "values": [{"measurement": "Diameter of inhibition zone", "setting": "AM25-6", "result": 0.9, "unit": "cm"}]}, {"compound": "Neomycin", "values": [{"measurement": "Diameter of inhibition zone", "setting": "AM25-6", "result": 1.0, "unit": "cm"}]}, {"compound": "CN(C)c1ccc(O)c2c1C[C@H]1C[C@H]3[C@H](N(C)C)C(O)=C(C(N)=O)C(=O)[C@@]3(O)C(O)=C1C2=O", "note": "[Minocin (Minocycline), Minocycline]", "values": [{"measurement": "Diameter of inhibition zone", "setting": "AM25-6", "result": 2.6, "unit": "cm"}]}, {"compound": "CO/N=C(\\C(=O)N[C@@H]1C(=O)N2C(C(=O)O)=C(CSc3nc(=O)c(=O)[nH]n3C)CS[C@H]12)c1csc(N)n1", "note": "[Ceftriaxone Sodium]", "values": [{"measurement": "Diameter of inhibition zone", "setting": "AM25-6", "result": ">4.0", "unit": "cm"}]}, {"compound": "CCN1CCN(C(=O)N[C@@H](C(=O)N[C@@H]2C(=O)N3C(C(=O)O)=C(CSc4nnnn4C)CS[C@H]23)c2ccc(O)cc2)C(=O)C1=O", "note": "[Cefoperazone]", "values": [{"measurement": "Diameter of inhibition zone", "setting": "AM25-6", "result": ">4.0", "unit": "cm"}]}, {"compound": "CC1=C(C(=O)O)N2C(=O)[C@@H](NC(=O)[C@H](N)c3ccccc3)[C@H]2SC1", "note": "[Cefalexin]", "values": [{"measurement": "Diameter of inhibition zone", "setting": "AM25-6", "result": 2.0, "unit": "cm"}]}, {"compound": "NCC[C@H](O)C(=O)N[C@@H]1C[C@H](N)[C@@H](O[C@H]2O[C@H](CN)[C@@H](O)[C@H](O)[C@H]2O)[C@H](O)[C@H]1O[C@H]1O[C@H](CO)[C@@H](O)[C@H](N)[C@H]1O", "note": "[Amikacin]", "values": [{"measurement": "Diameter of inhibition zone", "setting": "AM25-6", "result": 1.5, "unit": "cm"}]}, {"compound": "NC[C@H]1O[C@H](O[C@H]2[C@H](O)[C@@H](O[C@H]3O[C@H](CO)[C@@H](O)[C@H](N)[C@H]3O)[C@H](N)C[C@@H]2N)[C@H](O)[C@@H](O)[C@@H]1O", "note": "[Kanamycin]", "values": [{"measurement": "Diameter of inhibition zone", "setting": "AM25-6", "result": 1.8, "unit": "cm"}]}, {"compound": "CN(C)C(=N)N=C(N)N", "note": "[Metformin, metformin, reference compound]", "values": [{"measurement": "Body weight", "setting": "[1]; Week 1", "result": 20.33, "unit": "g"}, {"measurement": "Body weight", "setting": "[1]; Week 3", "result": 22.36, "unit": "g"}, {"measurement": "Body weight", "setting": "[1]; Week 5", "result": 24.63, "unit": "g"}, {"measurement": "Body weight", "setting": "[1]; Week 7", "result": 25.86, "unit": "g"}, {"measurement": "Body weight", "setting": "[1]; Week 9, *P<0.05 relative to model group", "result": "26.53* g"}, {"measurement": "Fasting blood glucose, Week 1", "setting": "[2]; Week 1", "result": 16.8, "unit": "mmol/L"}, {"measurement": "Fasting blood glucose, Week 3", "setting": "[2]; Week 3", "result": 16.2, "unit": "mmol/L"}, {"measurement": "Fasting blood glucose, Week 5", "setting": "[2]; Week 5", "result": 13.9, "unit": "mmol/L"}, {"measurement": "Fasting blood glucose, Week 7", "setting": "[2]; Week 7", "result": "11.5* mmol/L"}, {"measurement": "Fasting blood glucose, Week 9", "setting": "[2]; Week 9", "result": "10.1** mmol/L"}, {"measurement": "Blood glucose in OGTT, 0 minute", "setting": "[3]; 0 minute after glucose by gavage", "result": 9.3, "unit": "mmol/L"}, {"measurement": "Blood glucose in OGTT, 30 minutes", "setting": "[3]; 30 minutes after glucose by gavage", "result": 18.6, "unit": "mmol/L"}, {"measurement": "Blood glucose in OGTT, 60 minutes", "setting": "[3]; 60 minutes after glucose by gavage", "result": 16.4, "unit": "mmol/L"}, {"measurement": "Blood glucose in OGTT, 90 minutes", "setting": "[3]; 90 minutes after glucose by gavage", "result": "11.7* mmol/L"}, {"measurement": "Blood glucose in OGTT, 120 minutes", "setting": "[3]; 120 minutes after glucose by gavage", "result": 10.3, "unit": "mmol/L"}]}, {"compound": "C[C@H]1c2cccc(O)c2C(=O)C2=C(O)[C@]3(O)C(=O)C(C(N)=O)=C(O)[C@@H](N(C)C)[C@@H]3[C@@H](O)[C@@H]21", "note": "[Doxycycline]", "values": [{"measurement": "Diameter of inhibition zone", "setting": "AM25-6", "result": 2.0, "unit": "cm"}]}, {"compound": "Cc1onc(-c2ccccc2)c1C(=O)N[C@@H]1C(=O)N2[C@@H]1SC(C)(C)[C@@H]2C(=O)O", "note": "[Oxacillin]", "values": [{"measurement": "Diameter of inhibition zone", "setting": "AM25-6", "result": 1.0, "unit": "cm"}]}, {"compound": "CCN1CCN(C(=O)N[C@@H](C(=O)N[C@@H]2C(=O)N3[C@@H]2SC(C)(C)[C@@H]3C(=O)O)c2ccccc2)C(=O)C1=O", "note": "[Piperacillin]", "values": [{"measurement": "Diameter of inhibition zone", "setting": "AM25-6", "result": 3.0, "unit": "cm"}]}, {"compound": "CC[C@H]1OC(=O)[C@H](C)[C@@H](O[C@H]2C[C@@](C)(OC)[C@@H](O)[C@H](C)O2)[C@H](C)[C@@H](O[C@@H]2O[C@H](C)C[C@H](N(C)C)[C@H]2O)[C@](C)(O)C[C@@H](C)C(=O)[C@H](C)[C@@H](O)[C@]1(C)O", "note": "[Erythromycin]", "values": [{"measurement": "Diameter of inhibition zone", "setting": "AM25-6", "result": 2.0, "unit": "cm"}]}, {"compound": "Penicillin", "values": [{"measurement": "Diameter of inhibition zone", "setting": "AM25-6", "result": 3.0, "unit": "cm"}]}, {"compound": "CC(C)(O/N=C(\\C(=O)N[C@@H]1C(=O)N2C(C(=O)[O-])=C(C[n+]3ccccc3)CS[C@H]12)c1csc(N)n1)C(=O)O", "note": "[Fortum (Ceftazidime), Ceftazidime]", "values": [{"measurement": "Diameter of inhibition zone", "setting": "AM25-6", "result": ">4.0", "unit": "cm"}]}, {"compound": "CC1(C)S[C@@H]2[C@H](NC(=O)C(C(=O)O)c3ccccc3)C(=O)N2[C@H]1C(=O)O", "note": "(some centres unmarked) [Carbenicillin]", "values": [{"measurement": "Diameter of inhibition zone", "setting": "AM25-6", "result": ">4.0", "unit": "cm"}]}, {"compound": "CC1=C(C(=O)O)N2C(=O)[C@@H](NC(=O)[C@H](N)C3=CCC=CC3)[C@H]2SC1", "note": "[Cefradine]", "values": [{"measurement": "Diameter of inhibition zone", "setting": "AM25-6", "result": 2.0, "unit": "cm"}]}, {"compound": "Cc1nnc(SCC2=C(C(=O)O)N3C(=O)[C@@H](NC(=O)Cn4cnnn4)[C@H]3SC2)s1", "note": "[Cefazolin]", "values": [{"measurement": "Diameter of inhibition zone", "setting": "AM25-6", "result": 2.6, "unit": "cm"}]}]}
